Data: ChEMBL document CHEMBL1201862, “PubChem BioAssay data set” (2004)
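48-hour exposure; five concentrations; linearly interpolated endpoints. The concentration for 50% growth inhibition is given as GI50.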 The source made the active and inactive calls. No stated cut-off is given here; in the data, active = GI50 up to about 1.1 µM and inactive = higher.

Key:
Experiment in all cases: NCI tumour cell line growth inhibition, 48 h
DMS-273 = test system: DMS-273
KM-20L2 = test system: KM-20L2
LXFL 529 = test system: LXFL 529
DLD-1 = test system: DLD-1
M19-MEL = test system: M19-MEL
XF498 = test system: XF498
SNB-78 = test system: SNB-78
HOP-18 = test system: HOP-18
RXF 631 = test system: RXF 631

SMILES	GI50 (DMS-273)	GI50 (KM-20L2)	GI50 (LXFL 529)	GI50 (DLD-1)	GI50 (M19-MEL)	GI50 (XF498)	GI50 (SNB-78)	GI50 (HOP-18)	GI50 (RXF 631)
N#C/C(c1nc2ccccc2[nH]1)=c1\s/c(=C/c2ccccc2)c(=O)n1-c1ccccc1	> 100 µM (inactive)	> 100 µM (inactive)	96.2 µM (inactive)	> 100 µM (inactive)	> 100 µM (inactive)	60.8 µM (inactive)			
COC(=O)C(CC(=O)Nc1ccc(C)cc1)C(=O)C(=O)Nc1ccccc1C(C)C (centres undefined)	> 100 µM (inactive)	> 100 µM (inactive)	> 100 µM (inactive)	> 100 µM (inactive)	> 100 µM (inactive)	> 100 µM (inactive)	> 100 µM (inactive)	> 100 µM (inactive)	
CCC(C)(C)NS(=O)(=O)c1ccccc1	> 100 µM (inactive)	> 100 µM (inactive)	> 100 µM (inactive)	> 100 µM (inactive)	> 100 µM (inactive)	> 100 µM (inactive)	> 100 µM (inactive)		
N#C/N=C(\NCCc1c[nH]c2ccccc12)NCc1ccccc1	69.2 µM (inactive)	16.3 µM (inactive)	48.2 µM (inactive)	94.8 µM (inactive)	81.3 µM (inactive)	29.6 µM (inactive)	> 100 µM (inactive)		
COc1ccc(NC(=O)C(=O)C2NC(=S)NC2=O)c(OC)c1 (centres undefined)	> 100 µM (inactive)	> 100 µM (inactive)	> 100 µM (inactive)	> 100 µM (inactive)	> 100 µM (inactive)		> 100 µM (inactive)		> 100 µM (inactive)
CCCCCCCCCCNC(=S)OCCCC	20.3 µM (inactive)	19.1 µM (inactive)	22.9 µM (inactive)	27.2 µM (inactive)	35.3 µM (inactive)	20.1 µM (inactive)	35.3 µM (inactive)	26.9 µM (inactive)	26.4 µM (inactive)
CS(=O)(=O)Nc1ccc(Nc2c3ccccc3nc3ccccc23)cc1	0.658 µM (active)	3.06 µM (inactive)	3.43 µM (inactive)	4.15 µM (inactive)	2.32 µM (inactive)	2.6 µM (inactive)	7.83 µM (inactive)	2.82 µM (inactive)	1.77 µM (inactive)
C[C@]12CCCC(=O)C1C[C@H](C(=O)O)CC2 (some centres undefined)	> 100 µM (inactive)	> 100 µM (inactive)	> 100 µM (inactive)	> 100 µM (inactive)	> 100 µM (inactive)	> 100 µM (inactive)		> 100 µM (inactive)	> 100 µM (inactive)
CCCC(OCC)(OCC)OCC	52.1 µM (inactive)	> 100 µM (inactive)	> 100 µM (inactive)	> 100 µM (inactive)	> 100 µM (inactive)	> 100 µM (inactive)	> 100 µM (inactive)	> 100 µM (inactive)	> 100 µM (inactive)
O=[N+]([O-])c1ccc(OCCNc2cccc3ccccc23)cc1	46.7 µM (inactive)	> 100 µM (inactive)	33.3 µM (inactive)	37.9 µM (inactive)	> 100 µM (inactive)	> 100 µM (inactive)		> 100 µM (inactive)	> 100 µM (inactive)
Cc1cc2nc3c(C(OC4OC(CO)C(O)C(O)C4O)C(O)CO)nn(-c4ccccc4)c3nc2cc1C (centres undefined)		> 100 µM (inactive)		> 100 µM (inactive)		> 100 µM (inactive)	> 100 µM (inactive)		
O=c1c(O)cccn1C1OC(CO)C(O)C1O (centres undefined)	> 100 µM (inactive)	> 100 µM (inactive)	> 100 µM (inactive)	> 100 µM (inactive)			> 100 µM (inactive)	> 100 µM (inactive)	> 100 µM (inactive)
C[C@]12C=CC(=O)C=C1CC[C@H]1[C@@H]3C[C@@H](O)[C@](O)(C(=O)CO)[C@@]3(C)C[C@H](O)[C@@]12F [TRIAMCINOLONE]	> 100 µM (inactive)	> 100 µM (inactive)	> 100 µM (inactive)	> 100 µM (inactive)	> 100 µM (inactive)	> 100 µM (inactive)	> 100 µM (inactive)		> 100 µM (inactive)
Cc1ccnc(NS(=O)(=O)c2ccc(NC3=CC(=O)C(=O)c4ccccc43)cc2)n1	> 100 µM (inactive)	> 100 µM (inactive)	> 100 µM (inactive)	> 100 µM (inactive)	> 100 µM (inactive)	> 100 µM (inactive)	> 100 µM (inactive)	> 100 µM (inactive)	> 100 µM (inactive)
C=CCOc1cc2c(cc1C(C)c1ccc(OC)cc1)OCO2 (centres undefined)	0.421 µM (active)	0.348 µM (active)	0.718 µM (active)	0.533 µM (active)	0.718 µM (active)	0.287 µM (active)	1.46 µM (inactive)		
O=C(c1cccs1)N(C(=S)N1CCN(c2ccccn2)CC1)C1CCCCC1	43.1 µM (inactive)	70.6 µM (inactive)	58.6 µM (inactive)	63.8 µM (inactive)			> 100 µM (inactive)	> 100 µM (inactive)	
Cc1cc(O)c2c(c1)OC1(C)CCC3C(C)(C)CCCC34COC2C14 (centres undefined)	14 µM (inactive)	16.6 µM (inactive)	15 µM (inactive)	20.4 µM (inactive)					
CC(C)CCC[C@@H](C)C1CCC2[C@@H]3CC=C4C[C@@H](C(=O)NCCN(C)C)CC[C@]4(C)C3CC[C@@]21C (some centres undefined)	24.4 µM (inactive)	83 µM (inactive)	13.9 µM (inactive)	36.1 µM (inactive)	19.7 µM (inactive)	8.11 µM (inactive)	> 100 µM (inactive)	22.4 µM (inactive)	
CC(=O)OC1CC2C(C)(C)C(=O)C=C[C@]2(C)C2CCC3(C)C(c4ccoc4)C(=O)[C@H]4O[C@]43[C@]12C (some centres undefined)		> 10 µM (inactive)	33.7 µM (inactive)	13.6 µM (inactive)	20.4 µM (inactive)		57.8 µM (inactive)		
Clc1cc(Cc2cc(Cl)c(Cl)c3c2OCOC3)c2c(c1Cl)COCO2	38.7 µM (inactive)	> 100 µM (inactive)	37.7 µM (inactive)	> 100 µM (inactive)	82.8 µM (inactive)		45.1 µM (inactive)	23.8 µM (inactive)	
COc1ccc(-c2cc(-c3cc(C)ccc3O)nc(O)n2)cc1	50.8 µM (inactive)	> 100 µM (inactive)	64 µM (inactive)	> 100 µM (inactive)	> 100 µM (inactive)		43.7 µM (inactive)	> 100 µM (inactive)	> 100 µM (inactive)
O=C(Nc1nc2ccccc2n1Cc1ccc(Cl)cc1)NC12CC3CC(CC(C3)C1)C2	13.8 µM (inactive)	64.7 µM (inactive)	20.3 µM (inactive)	36.2 µM (inactive)	39.4 µM (inactive)	13.4 µM (inactive)		27.6 µM (inactive)	
CSC1(C)CC2C(CC1N1CCOCC1)C2(C)C (centres undefined)	> 100 µM (inactive)		> 100 µM (inactive)	> 100 µM (inactive)	> 100 µM (inactive)	> 100 µM (inactive)	> 100 µM (inactive)	> 100 µM (inactive)	
CC1=Nc2c(ccc3c2C(=O)c2ccccc2C3=O)NC(c2cccc3c2CCC3)C1 (centres undefined)	> 73.6 µM (inactive)	> 100 µM (inactive)	> 100 µM (inactive)	46.1 µM (inactive)	> 43.4 µM (inactive)	> 100 µM (inactive)	> 100 µM (inactive)	> 67.3 µM (inactive)	70.1 µM (inactive)
CC(=O)Oc1cc(C)c2c(c1OC(C)=O)CC1(O2)[C@@H](C)CCC2[C@@]3(C)CC[C@H](OC(C)=O)C(C)(C)C3CC[C@]21C (some centres undefined)	2.25 µM (inactive)	14.1 µM (inactive)	4.62 µM (inactive)	3.42 µM (inactive)	2.02 µM (inactive)		2.24 µM (inactive)	2.64 µM (inactive)	5.4 µM (inactive)
O=C(CSc1nnc(Cc2ccccc2)o1)Nc1ccccc1Cl	> 100 µM (inactive)	> 100 µM (inactive)	> 100 µM (inactive)	> 100 µM (inactive)	> 100 µM (inactive)		> 100 µM (inactive)	> 100 µM (inactive)	
